From ChEMBL document CHEMBL4396947, “Synthesis and characterization of novel isoform-selective IP6K1 inhibitors” (Bioorg Med Chem Lett, 2019)

Tests used:
[1] = target: SRSF protein kinase 1 (Homo sapiens) (UniProt Q96SB4); assay: Inhibition of recombinant human SRPK1 (2 to end residues) assessed as residual activity at 10 uM using RSRSRSRSRSRSRSR as substrate incubated for 40 mins in presence of [gamma-33P]ATP at Km concentration by radiometric assay relative to control
[2] = target: Tyrosine-protein kinase Fyn (Homo sapiens) (UniProt P06241); assay: Inhibition of human full length recombinant FYN assessed as residual activity at 10 uM using KVEKIGEGTYGVV as substrate incubated for 40 mins in presence of [gamma-33P]ATP at Km concentration by radiometric assay relative to control
[3] = test system: Glycogen synthase kinase-3 beta (Homo sapiens), P49841 [UNDEFINED MUTATION]; assay: Inhibition of human recombinant GSK3beta H350L mutant (2 to end residues) assessed as residual activity at 10 uM using YRRAAVPPSPSLSR as substrate incubated for 40 mins in presence of [gamma-33P]ATP at Km concentration by radiometric assay relative to control
[4] = target: Serine/threonine-protein kinase PLK3 (Homo sapiens) (UniProt Q9H4B4); assay: Inhibition of recombinant human Plk3 (19 to 301 residues) assessed as residual activity at 10 uM using casein as substrate incubated for 40 mins in presence of [gamma-33P]ATP at Km concentration by radiometric assay relative to control
[5] = Half life in rat microsomes at 1 uM in presence of NADPH; type: ADME, Microsome
[6] = target: CDK2/Cyclin A2 (Homo sapiens) (UniProt P24941+P20248); assay: Inhibition of human full length recombinant CDK2/cyclinA assessed as residual activity at 10 uM using Histone H1 as substrate incubated for 40 mins in presence of [gamma-33P]ATP at Km concentration by radiometric assay relative to control; type: protein-complex assay
[7] = test system: RAF proto-oncogene serine/threonine-protein kinase (Homo sapiens), P04049 [Y340D,Y341D]; assay: Inhibition of recombinant human c-RAF Y340D/Y341D double mutant (360 to end residues) assessed as residual activity at 10 uM using inactive MEK1 as substrate incubated for 40 mins in presence of [gamma-33P]ATP at Km concentration by radiometric assay relative to control

Sequence of Serine/threonine-protein kinase PLK3 (Homo sapiens) (Q9H4B4 whole entry, looked up, the tested form may be a part): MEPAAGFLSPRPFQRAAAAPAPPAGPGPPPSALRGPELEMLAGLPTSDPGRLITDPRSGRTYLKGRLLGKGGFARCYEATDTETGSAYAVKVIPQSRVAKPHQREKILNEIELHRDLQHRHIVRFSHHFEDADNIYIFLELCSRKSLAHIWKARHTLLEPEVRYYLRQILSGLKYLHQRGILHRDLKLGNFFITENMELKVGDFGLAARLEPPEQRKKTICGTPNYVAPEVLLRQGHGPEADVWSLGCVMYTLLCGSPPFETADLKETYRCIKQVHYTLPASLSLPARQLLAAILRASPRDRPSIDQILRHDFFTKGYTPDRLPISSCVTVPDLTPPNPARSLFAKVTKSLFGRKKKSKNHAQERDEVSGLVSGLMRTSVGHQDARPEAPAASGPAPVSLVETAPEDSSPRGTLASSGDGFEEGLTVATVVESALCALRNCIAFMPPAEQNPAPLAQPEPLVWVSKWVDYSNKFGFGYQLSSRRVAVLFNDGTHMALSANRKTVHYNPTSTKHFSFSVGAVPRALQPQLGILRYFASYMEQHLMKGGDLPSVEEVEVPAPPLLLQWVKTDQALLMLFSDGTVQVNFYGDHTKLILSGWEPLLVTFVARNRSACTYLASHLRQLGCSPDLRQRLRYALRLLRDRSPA
Sequence of Glycogen synthase kinase-3 beta (Homo sapiens), P49841 [UNDEFINED MUTATION] (P49841 whole entry, looked up, stated change not applied, the tested form may be a part): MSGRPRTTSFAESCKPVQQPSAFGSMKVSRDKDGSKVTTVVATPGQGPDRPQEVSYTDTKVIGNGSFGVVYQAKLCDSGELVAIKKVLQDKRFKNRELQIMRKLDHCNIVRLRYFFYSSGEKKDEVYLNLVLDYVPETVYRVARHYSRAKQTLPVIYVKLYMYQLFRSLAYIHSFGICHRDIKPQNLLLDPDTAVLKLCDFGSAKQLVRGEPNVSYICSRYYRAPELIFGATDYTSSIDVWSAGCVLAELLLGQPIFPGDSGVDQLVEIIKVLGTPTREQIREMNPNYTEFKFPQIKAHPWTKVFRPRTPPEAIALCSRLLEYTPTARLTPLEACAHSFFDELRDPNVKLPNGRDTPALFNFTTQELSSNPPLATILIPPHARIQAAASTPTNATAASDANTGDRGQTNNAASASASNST
Sequence of Tyrosine-protein kinase Fyn (Homo sapiens) (P06241 2-537 limits assumed): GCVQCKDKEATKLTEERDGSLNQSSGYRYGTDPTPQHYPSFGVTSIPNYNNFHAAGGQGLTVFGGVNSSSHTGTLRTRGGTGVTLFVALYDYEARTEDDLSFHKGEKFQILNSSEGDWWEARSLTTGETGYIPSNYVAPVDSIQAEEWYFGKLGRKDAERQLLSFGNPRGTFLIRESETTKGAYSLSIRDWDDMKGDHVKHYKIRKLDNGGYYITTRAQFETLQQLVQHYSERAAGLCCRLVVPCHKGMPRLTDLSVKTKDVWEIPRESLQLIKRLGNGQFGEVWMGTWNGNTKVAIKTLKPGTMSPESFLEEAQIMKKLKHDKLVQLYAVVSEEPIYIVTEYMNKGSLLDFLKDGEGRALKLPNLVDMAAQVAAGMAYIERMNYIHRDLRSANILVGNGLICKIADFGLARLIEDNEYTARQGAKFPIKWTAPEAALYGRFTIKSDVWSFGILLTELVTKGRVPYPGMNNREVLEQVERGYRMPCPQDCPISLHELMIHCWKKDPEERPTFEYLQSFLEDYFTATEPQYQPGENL
Sequence of SRSF protein kinase 1 (Homo sapiens) (Q96SB4 whole entry): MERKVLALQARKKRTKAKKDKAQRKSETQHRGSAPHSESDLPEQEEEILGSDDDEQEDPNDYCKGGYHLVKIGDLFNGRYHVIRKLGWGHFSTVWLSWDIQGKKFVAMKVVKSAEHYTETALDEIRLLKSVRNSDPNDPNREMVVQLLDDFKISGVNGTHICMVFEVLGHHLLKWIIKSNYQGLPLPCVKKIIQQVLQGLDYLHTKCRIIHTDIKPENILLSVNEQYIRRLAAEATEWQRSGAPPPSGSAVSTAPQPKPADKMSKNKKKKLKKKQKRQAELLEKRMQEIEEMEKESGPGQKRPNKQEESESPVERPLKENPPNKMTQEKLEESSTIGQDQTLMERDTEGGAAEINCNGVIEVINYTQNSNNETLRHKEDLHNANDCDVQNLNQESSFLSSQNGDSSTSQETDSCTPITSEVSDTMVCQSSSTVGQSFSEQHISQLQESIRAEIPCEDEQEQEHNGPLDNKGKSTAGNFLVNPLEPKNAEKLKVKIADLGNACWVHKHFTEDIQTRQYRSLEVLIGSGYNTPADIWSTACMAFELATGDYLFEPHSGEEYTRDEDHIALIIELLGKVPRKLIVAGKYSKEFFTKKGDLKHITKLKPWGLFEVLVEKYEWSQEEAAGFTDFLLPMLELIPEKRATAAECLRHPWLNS

Work on COc1ccc2c(CCNc3nc(NCc4ccc(=O)[nH]c4)c4nc[nH]c4n3)c[nH]c2c1 yielded an Activity [1] of 91%, an Activity [2] of 84% and an Activity [3] of 63%. For the same compound, the Activity [4] was 109%, the t1/2 [5] was 38 min and the Activity [6] was 90%. For the same compound, the Activity [7] was -3%.
